ChEMBL document CHEMBL1201862, “PubChem BioAssay data set” (2004)
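Five compound concentrations were applied to cells in 96-well plates for 48 hours; endpoints were derived by simple linear interpolation of the resulting dose-response curve. The concentration for 50% growth inhibition is given as GI50.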 Activity calls are given as the source filed them. No stated cut-off is given here; in the data, active = GI50 up to about 1.1 µM and inactive = higher.

Key:
Assay in all cases: growth of human tumour cells (NCI), 48 h
Malme-3M = tested on: Malme-3M
OVCAR-5 = tested on: OVCAR-5
CAKI-1 = tested on: CAKI-1
MDA-MB-231 = tested on: MDA-MB-231
RXF 393 = tested on: RXF 393
UACC-257 = tested on: UACC-257
DU-145 = tested on: DU-145
KM12 = tested on: KM12
HCT-116 = tested on: HCT-116
PC-3 = tested on: PC-3
EKVX = tested on: EKVX
SW-620 = tested on: SW-620
SK-MEL-5 = tested on: SK-MEL-5
NCI-H460 = tested on: NCI-H460
NCI/ADR-RES = tested on: NCI/ADR-RES
OVCAR-4 = tested on: OVCAR-4
ACHN = tested on: ACHN
SK-MEL-28 = tested on: SK-MEL-28
HL-60 = tested on: HL-60
NCI-H522 = tested on: NCI-H522

| SMILES | GI50 (Malme-3M) | GI50 (OVCAR-5) | GI50 (CAKI-1) | GI50 (MDA-MB-231) | GI50 (RXF 393) | GI50 (UACC-257) | GI50 (DU-145) | GI50 (KM12) | GI50 (HCT-116) | GI50 (PC-3) | GI50 (EKVX) | GI50 (SW-620) | GI50 (SK-MEL-5) | GI50 (NCI-H460) | GI50 (NCI/ADR-RES) | GI50 (OVCAR-4) | GI50 (ACHN) | GI50 (SK-MEL-28) | GI50 (HL-60) | GI50 (NCI-H522) |
| --- | --- | --- | --- | --- | --- | --- | --- | --- | --- | --- | --- | --- | --- | --- | --- | --- | --- | --- | --- | --- |
| Clc1cccc(Cl)c1C1SCc2nc3cc4ccccc4cc3n21 (stereo not drawn) | > 100 µM (inactive) | > 100 µM (inactive) | > 100 µM (inactive) | > 100 µM (inactive) | > 100 µM (inactive) | > 100 µM (inactive) | > 100 µM (inactive) | > 100 µM (inactive) | > 100 µM (inactive) | > 100 µM (inactive) | > 100 µM (inactive) | > 100 µM (inactive) | > 100 µM (inactive) | > 100 µM (inactive) | > 100 µM (inactive) | > 100 µM (inactive) | > 100 µM (inactive) | > 100 µM (inactive) | – | – |
| Cc1c2c(c(O)c3c(O)cccc13)C(=O)C1(O)C(=O)C(C(=O)NCNc3ccc(C(N)=O)cn3)=C(O)C(N(C)C)C1C2 (stereo not drawn) | 3.28 µM (inactive) | 5.02 µM (inactive) | 5.36 µM (inactive) | 3.78 µM (inactive) | 2.89 µM (inactive) | 3.66 µM (inactive) | 4.39 µM (inactive) | 3.53 µM (inactive) | 4.06 µM (inactive) | 3.68 µM (inactive) | 4.33 µM (inactive) | 3.52 µM (inactive) | 2.16 µM (inactive) | – | 5.5 µM (inactive) | 1.93 µM (inactive) | – | 3.53 µM (inactive) | – | – |
| O=C1C=C(Nc2cccnc2)c2ccccc2/C1=N/O | – | > 100 µM (inactive) | 40.4 µM (inactive) | 16.7 µM (inactive) | 33.7 µM (inactive) | 33.1 µM (inactive) | 50.5 µM (inactive) | 13.6 µM (inactive) | 26.6 µM (inactive) | 19.5 µM (inactive) | 14.7 µM (inactive) | 18.3 µM (inactive) | 4.67 µM (inactive) | 22.8 µM (inactive) | 21.5 µM (inactive) | 19.6 µM (inactive) | 23.2 µM (inactive) | – | 0.789 µM (active) | 9.89 µM (inactive) |
| CC(=O)Oc1cc(S(=O)(=O)Nc2n[nH]c(Nc3ccc(C)cc3)n2)c(S)cc1Cl | > 100 µM (inactive) | > 100 µM (inactive) | > 100 µM (inactive) | 51.1 µM (inactive) | – | > 100 µM (inactive) | > 100 µM (inactive) | > 100 µM (inactive) | > 100 µM (inactive) | > 100 µM (inactive) | > 100 µM (inactive) | > 100 µM (inactive) | > 100 µM (inactive) | > 100 µM (inactive) | > 100 µM (inactive) | > 100 µM (inactive) | 54.8 µM (inactive) | > 100 µM (inactive) | 45.7 µM (inactive) | 92 µM (inactive) |
| Clc1ccc(CCNCCNC2(c3cc4ccccc4s3)CCCCC2)cc1Cl | 1.88 µM (inactive) | 1.85 µM (inactive) | 1.87 µM (inactive) | 1.78 µM (inactive) | 2.01 µM (inactive) | 1.81 µM (inactive) | 1.88 µM (inactive) | 1.6 µM (inactive) | 1.73 µM (inactive) | 1.73 µM (inactive) | 2.08 µM (inactive) | 1.86 µM (inactive) | 1.72 µM (inactive) | 1.73 µM (inactive) | 1.8 µM (inactive) | 1.64 µM (inactive) | 1.73 µM (inactive) | 1.79 µM (inactive) | – | 1.84 µM (inactive) |
| c1ccc(C(CCN2CCCC2)c2ccccn2)cc1 (stereo not drawn) | > 100 µM (inactive) | > 100 µM (inactive) | > 100 µM (inactive) | > 100 µM (inactive) | > 100 µM (inactive) | > 100 µM (inactive) | > 100 µM (inactive) | > 100 µM (inactive) | > 100 µM (inactive) | > 100 µM (inactive) | > 100 µM (inactive) | > 100 µM (inactive) | > 100 µM (inactive) | > 100 µM (inactive) | > 100 µM (inactive) | > 100 µM (inactive) | > 100 µM (inactive) | > 100 µM (inactive) | – | > 100 µM (inactive) |
| COC1CC(OC(=O)c2ccccc2)C(OC(=O)c2ccccc2)C(C)O1 (stereo not drawn) | > 100 µM (inactive) | > 100 µM (inactive) | > 100 µM (inactive) | > 100 µM (inactive) | > 100 µM (inactive) | > 100 µM (inactive) | > 100 µM (inactive) | > 100 µM (inactive) | > 100 µM (inactive) | > 100 µM (inactive) | > 100 µM (inactive) | > 100 µM (inactive) | > 100 µM (inactive) | > 100 µM (inactive) | > 100 µM (inactive) | – | > 100 µM (inactive) | > 100 µM (inactive) | > 100 µM (inactive) | > 100 µM (inactive) |
| O=C(CCN1CCOCC1)Nc1ccc(F)cc1F | > 100 µM (inactive) | > 100 µM (inactive) | > 100 µM (inactive) | > 100 µM (inactive) | – | > 100 µM (inactive) | > 100 µM (inactive) | > 100 µM (inactive) | > 100 µM (inactive) | > 100 µM (inactive) | > 100 µM (inactive) | > 100 µM (inactive) | > 100 µM (inactive) | > 100 µM (inactive) | > 100 µM (inactive) | > 100 µM (inactive) | > 100 µM (inactive) | > 100 µM (inactive) | > 100 µM (inactive) | > 100 µM (inactive) |
| Brc1cccc(/N=N/N2CCCC2)c1 | – | > 100 µM (inactive) | 75.5 µM (inactive) | > 100 µM (inactive) | > 100 µM (inactive) | > 100 µM (inactive) | > 100 µM (inactive) | 93.5 µM (inactive) | 92.3 µM (inactive) | 71.3 µM (inactive) | 97.9 µM (inactive) | > 100 µM (inactive) | 66.2 µM (inactive) | > 100 µM (inactive) | 81.5 µM (inactive) | > 100 µM (inactive) | > 100 µM (inactive) | – | 16.4 µM (inactive) | 68.9 µM (inactive) |
| CCCC(=O)NC(C(=O)OCC)(N1CCOCC1)C(F)(F)F (stereo not drawn) | > 100 µM (inactive) | > 100 µM (inactive) | > 100 µM (inactive) | > 100 µM (inactive) | > 100 µM (inactive) | > 100 µM (inactive) | > 100 µM (inactive) | > 100 µM (inactive) | > 100 µM (inactive) | > 100 µM (inactive) | > 100 µM (inactive) | > 100 µM (inactive) | > 100 µM (inactive) | – | > 100 µM (inactive) | > 100 µM (inactive) | > 100 µM (inactive) | > 100 µM (inactive) | > 100 µM (inactive) | > 100 µM (inactive) |
| CCCCC/N=C/c1c(O)c(O)c(C(C)C)c2cc(C)c(-c3c(C)cc4c(C(C)C)c(O)c(O)c(/C=N/CCCCC)c4c3O)c(O)c12 | 12.7 µM (inactive) | 19 µM (inactive) | 18 µM (inactive) | 7.43 µM (inactive) | 11.2 µM (inactive) | 15.6 µM (inactive) | 19.5 µM (inactive) | 4.7 µM (inactive) | 11 µM (inactive) | 5.35 µM (inactive) | 7.96 µM (inactive) | 6.97 µM (inactive) | 6.3 µM (inactive) | 5.65 µM (inactive) | 27.1 µM (inactive) | – | 3.59 µM (inactive) | 6.19 µM (inactive) | 3.94 µM (inactive) | 5.05 µM (inactive) |
| COc1cc2c(c(OC)c1OC)C(=O)c1c(O)cc(C)c(OC)c1C2=O | > 100 µM (inactive) | > 100 µM (inactive) | 44.6 µM (inactive) | 55 µM (inactive) | – | 54.6 µM (inactive) | > 100 µM (inactive) | > 100 µM (inactive) | 99.1 µM (inactive) | > 100 µM (inactive) | 65 µM (inactive) | > 100 µM (inactive) | 39.4 µM (inactive) | 63.1 µM (inactive) | 57.1 µM (inactive) | > 100 µM (inactive) | 46 µM (inactive) | 37.2 µM (inactive) | > 100 µM (inactive) | 57.1 µM (inactive) |
| COc1ccc(N2C(=O)CSC2c2cc(OC)c(OC)c(OC)c2)cc1 (stereo not drawn) | 23.7 µM (inactive) | 22.3 µM (inactive) | 25 µM (inactive) | 26.5 µM (inactive) | – | 12.5 µM (inactive) | 14.5 µM (inactive) | 15.1 µM (inactive) | 16.8 µM (inactive) | 25.1 µM (inactive) | 28.4 µM (inactive) | 34 µM (inactive) | 20.9 µM (inactive) | 18.9 µM (inactive) | 22.2 µM (inactive) | 42.5 µM (inactive) | 20.7 µM (inactive) | 33.4 µM (inactive) | 17.5 µM (inactive) | 14.1 µM (inactive) |
| O=c1oc2ccccc2cc1/C=N/N1C(=S)N(c2ccccc2)C(=N\c2ccccc2)/C1=N/c1ccccc1 | > 100 µM (inactive) | > 100 µM (inactive) | > 100 µM (inactive) | > 100 µM (inactive) | 26.4 µM (inactive) | 96.8 µM (inactive) | > 100 µM (inactive) | > 100 µM (inactive) | 41.4 µM (inactive) | 14 µM (inactive) | > 100 µM (inactive) | 8.71 µM (inactive) | 87.7 µM (inactive) | 47.6 µM (inactive) | > 100 µM (inactive) | – | 39.6 µM (inactive) | > 100 µM (inactive) | – | 34 µM (inactive) |
| O=S(=O)(O)c1ccc2c(/N=N/c3cccc4ccccc34)c(O)ccc2c1 | > 100 µM (inactive) | > 100 µM (inactive) | > 100 µM (inactive) | > 100 µM (inactive) | > 100 µM (inactive) | > 100 µM (inactive) | > 100 µM (inactive) | > 100 µM (inactive) | > 100 µM (inactive) | > 100 µM (inactive) | > 100 µM (inactive) | > 100 µM (inactive) | > 100 µM (inactive) | – | > 100 µM (inactive) | > 100 µM (inactive) | > 100 µM (inactive) | > 100 µM (inactive) | > 100 µM (inactive) | > 100 µM (inactive) |
